Experiments:
Human subjects = assay: Erythema intensity at UV-irradiated skin sites on the back, post-UV topical lotion, Example 3; format: in vivo; conditions: UV + lotion with 100 μM equol
Protocol: Tests were performed at the Australian Photobiology Testing Facility at the University of Sydney. Human subjects were tested in a controlled solarium. A grid was established using reference coordinate points on the back of each subject, thereby providing a series of treatment sites on the back of each patient where the erythema-reducing potential of compositions according to the invention could be tested.
Compounds of the Formula (I) were dissolved in DMSO and incorporated into base lotion “A” to contain 100 μM of active ingredient, and 0.5% DMSO.
Topical applications were made to the back of the patient within the treatment grid which was established to provide a series of sites for UV irradiation, and subsequent application of compositions. Topical application consisted of 2 mg/cm^2 lotion applied firmly, followed by a second 2 mg/cm^2 applied but not rubbed in. Each topical treatment was therefore 0.4 nmols/cm^2 compound in the Formula (I).
The treatment procedure was as follows. On the first day of treatment a minimum erythemal dose of UV (MED) was established for each subject, this being the minimum degree of UV light which on visual determination produces a reddening of the skin. […] The first treatment day was a Monday. Subsequent treatments were as follows:
Expose 3×3 skin sites to 0.75 MED UV.
Immediately, at four hours and at six hours post-UV, • 1 apply nil to three sites • 2 apply topical base lotion to three sites • 3 apply topical equol lotion to three sites according to technique above. Wednesday
Assess erythema (none visible as expected).
Re-expose same 3×3 skin sites to 0.75 MED UV.
Immediately, at four hours and at six hours post-UV, apply topical lotions as above.
Assess erythema visually by ranking the colour intensity of the 3×3 skin sites.
Re-expose same 3×3 skin sites to one MED UV.
Topical applications as before

[1] = test system: Hairless albino Sh:HR-1 mice; assay: Mid-dorsal skinfold thickness (erythema/oedema) after UV irradiation, Example 2; format: in vivo, mouse; conditions: for erythema/oedema (in words): measured at day four and day seven; for negative average skin fold increase / average skin fold increase: seven days after treatment; for negative average skin fold increase: given as a negative increase, substantially no increase in skin fold thickness; for average skin fold increase: one unit = 0.001 in, test lotion A
Protocol: (§1) The CHS reaction was carried out according to the protocol of Reeve et al, Immunology, 78:99-104 (1993). Hairless albino Sh:HR-1 mice were divided into two treatment groups. The first treatment group designated group 1 was not subject to UV irradiation, and received either 0.2 ml of test lotion “A” or test lotion ‘B’ painted on to the dorsal skin on four consecutive days (that is, 4 μmol/mouse, or approximately 0.1 μmol/cm^2). The second treatment group, group 2, were UV irradiated with a minimal erythemal dose of UV light which simulates the toxic effect of sunlight on the skin. After each daily UV treatment 0.2 ml of treatment solution was applied to the dorsal skin as for treatment group 1. Mid-dorsal skinfold thickness was measured every twenty four hours to indicate erythema oedema. CHS to oxazolone was induced on abdominal skin seven days after the first treatment followed by challenge on the ears on day 15, and average ear swelling was determined as a measure of immune response.
Erythema/oedema was measured at day four and day seven of the treatment groups. […] For example, at seven days after treatment for base lotion “A” average skin fold thickness was six units (that is 0.006 in), for the daidzein containing lotion average skin fold increase was seven units, and for tetrahydrodaidzein average skin fold thickness was five units. In contrast, for equol, genistein, dehydroequol and ODMA there was a negative average skin fold increase of approximately 0.2, which corresponds to substantially no increase in skin fold thickness.

[2] = test system: Hairless albino Sh:HR-1 mice; assay: Contact hypersensitivity (CHS) reaction to oxazolone after UV irradiation, Example 2; format: in vivo, mouse; conditions: for % Suppression of CHS: UV-irradiated vs non-UV group, lotion 20 μM compound (glucan 10% w/w in lotion B; clover extract 0.5% w/w), topical after each daily UV; for prevention/amelioration of UV induced immunosuppression (in words): topical lotion after UV, CHS model
Text: O'Dell et al (1980 Arch. Dermatol, 116, 559-561) have shown that sun-exposed skin areas on humans are immunologically impaired according to non-exposed skin. A standard model for testing immunosuppression, that is a model with reference to human immunosuppression, is the hairless mouse. A standard test in the hairless mouse model is the contact hypersensitivity (CHS) reaction to an immune irritant such as oxazolone (Asherson and Ptak, Immunology, (1968) 15:405-416). The compound oxazolone induces a vigorous immune response in the hairless mouse which may be measured by ear swelling. Immune suppression by UV light or other agents can be readily tested in the model. See for example Kondo, S, McKenzie, R. C., Sauder, D. N., J. Invest. Dermatol., 103:811-814; Reeve et al, Cancer Letts., 108:271-279 (1996); and Reeve et al, J. Invest. Dermatol., 103:801-806 (1994). As will be shown in the non-limiting examples which follow, compositions comprising compounds of the Formula (I) were active in the treatment/prevention/amelioration of UV induced immunosuppression in the hairless mouse model, which as discussed above is directly referable to the situation in human skin, for example, Yoshikawa et al, J. Invest. Dermatol., 95:530-536, (1990).
The CHS reaction in mice is a standard model for immunosuppression and is a representative model for human immunosuppression (Yoshikawa et al, Invest. Dermatol., 95:530-536 (1990)).
as §1
Genistein, daidzein, equol, tetrahydrodaidzein, ODMA, dehydroequol and clover extract were tested in this experiment in test lotion “A”. Equol, genistein and clover extract were also tested in tes lotion ‘B’. The results expressed below are given as a percentage of suppression of CHS measured with reference to the non-UV exposed treatment group 1, which is induced by UV exposure.

[3] = test system: Hairless albino Sh:HR-1 mice; assay: CHS reaction to oxazolone after UVB irradiation, equol/glucan lotions, Example 4; format: in vivo, mouse; conditions: for % Suppression of CHS: 1 MED (UVB) for 3 days, equol 2.5 uM, glucan 20% in base lotion, ears measured day 15; for decreasing percentage suppression of hypersensitivity and skin fold thickness (in words): compared to the control groups
Protocol: The CHS reaction was carried out as in Example 2. Hairless albino Sh:HR-1 mice were divided into eight treatment groups as shown: • 1. base lotion+MED (UVB) for […] • 2. glucan (20%) in base lotion+1 MED (UVB) for 3 days • 3. Equol (2.5 uM) in base lotion+1 MED (UVB) for 3 days • 4. Equol (2.5 uM)+glucan (20%) in base lotion+1 MED (UVB) for 3 days • 5. base lotion and no irradiation for three days (Control) • 6. glucan (20%) in base lotion and no irradiation for three days (Control) • 7. Equol (2.5 uM) in base lotion and no irradiation for three days (Control) • 8. Equol (2.5 uM)+glucan (20%) in base lotion and no irradiation for three days (Control)
On days 7 and 8 the mice were sensitised with 2% oxazolone in alcohol (100 ul/mouse). On day 14, the ears were challenged with 2% oxazolone (20 ul/mouse). On day 15, the ears were measured for skin fold thickness and suppression of […] hypersensitivity.

With `Oc1ccc([C@H]2COc3cc(O)ccc3C2)cc1` [Equol, equol] the “Average erythema intensity (n = 3)” value (Human subjects; 48 hours, 0.4 nmols/cm^2 per application) was 0.21, the “Average erythema intensity (n = 3)” value (Human subjects; 52 hours) was 0.21 and the “Average erythema intensity (n = 3)” value (Human subjects; 55.5 hours) was 0.67. The “Average erythema intensity (n = 3)” value (Human subjects; 71 hours) was 0.67, the “Average erythema intensity (n = 3)” value (Human subjects; 75 hours) was 0.38 and the “Average erythema intensity (n = 3)” value (Human subjects; 77 hours) was 0.54. For the same compound, the “erythema/oedema (in words)” value [1] was “suppressed erythema/oedema”, the “negative average skin fold increase” value [1] was “approximately 0.2” and the “% Suppression of CHS” value ([2]; 18 hours of ear challenge) was 12%. For the same compound, the “% Suppression of CHS” value ([2]; 21 hours of ear challenge) was 5%, the “prevention/amelioration of UV induced immunosuppression (in words)” value (shortened to “prevention/amelioration”) [2] was “significant activity” and the “% Suppression of CHS” value [3] was 6%. For the same compound, the “decreasing percentage suppression of hypersensitivity and skin fold thickness (in words)” value [3] was “effective”.
With `Oc1ccc(C2=Cc3ccc(O)cc3OC2)cc1` [dehydroequol] the “negative average skin fold increase” value [1] was “approximately 0.2”, the “% Suppression of CHS” value ([2]; 18 hours of ear challenge) was 10% and the “% Suppression of CHS” value ([2]; 21 hours of ear challenge) was 4%. The “prevention/amelioration” value [2] was “significant activity”.
With β-(1,3)(1,6)-glucan [Glucan only] the “% Suppression of CHS” value [3] was 4.5% and the “decreasing percentage suppression of hypersensitivity and skin fold thickness (in words)” value [3] was “effective”.
In the case of `O=c1c(-c2ccc(O)cc2)coc2cc(O)cc(O)c12` [Genistein, genistein], the “erythema/oedema (in words)” value [1] was “suppressed erythema/oedema”, the “negative average skin fold increase” value [1] was “approximately 0.2” and the “% Suppression of CHS” value ([2]; 18 hours of ear challenge) was 14%. For the same compound, the “% Suppression of CHS” value ([2]; 21 hours of ear challenge) was 13% and the “prevention/amelioration” value [2] was “significant activity”.
`CC(C(=O)c1ccc(O)cc1O)c1ccc(O)cc1` (stereo not drawn) [ODMA, O-desmethyl-angolensin] was tested, and the “negative average skin fold increase” value [1] was “approximately 0.2”.
In the case of `O=c1c(-c2ccc(O)cc2)coc2cc(O)ccc12` [Daidzein, daidzein], the “average skin fold increase” value [1] was “seven”, the “% Suppression of CHS” value ([2]; 18 hours of ear challenge) was 27% and the “% Suppression of CHS” value ([2]; 21 hours of ear challenge) was 37%. For the same compound, the “prevention/amelioration” value [2] was “did not ameliorate”.
In the case of `Oc1ccc(C2COc3cc(O)ccc3C2O)cc1` (stereo not drawn) [tetrahydrodaidzein], the “average skin fold increase” value [1] was “five”, the “% Suppression of CHS” value ([2]; 18 hours of ear challenge) was 33% and the “% Suppression of CHS” value ([2]; 21 hours of ear challenge) was 31%. For the same compound, the “prevention/amelioration” value [2] was “did not ameliorate”.
